Counter-ions that a name gives are not always drawn. Like-named read-outs stand apart in the source and are kept apart here.
Molecular target: T1, horseradish peroxidase (HRP) tagged delF508-CFTR (Homo sapiens, UniProt P13569, DEL508-508)
T1 construct: expressed in transfected cells
Experiment: Measurement of delF508-CFTR-HRP surface expression in CFBE41o- cells;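 as to DelF508-CFTR-HRP Amax %: percent efficacy relative to reference corrector lumacaftor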
Type: cell-based
Details: for Emax: read-out: DelF508-CFTR-HRP Amax %
Outline: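 Surface-trafficked delF508-CFTR detected via extracellular HRP tag, read as luminescence from a membrane-impermeant substrate in CFBE41o- cells. Cells pre-induced 48h with 500 ng/mL doxycycline, then exposed 24h at 37° C to a 10-point, 3-fold dilution series from 10 μM (DMSO ≤0.5%). Triplicate dose-responses fitted logistically for EC50 after per-plate normalization; fold change versus reference compound.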

[1] = delF508-CFTR-HRP surface expression, CFBE41o- cells
[2] = delF508-CFTR-HRP surface expression, CFBE41o- cells, read-out: DelF508-CFTR-HRP EC50

T1 sequence (P13569 with tags, fused parts or gaps DEL508-508): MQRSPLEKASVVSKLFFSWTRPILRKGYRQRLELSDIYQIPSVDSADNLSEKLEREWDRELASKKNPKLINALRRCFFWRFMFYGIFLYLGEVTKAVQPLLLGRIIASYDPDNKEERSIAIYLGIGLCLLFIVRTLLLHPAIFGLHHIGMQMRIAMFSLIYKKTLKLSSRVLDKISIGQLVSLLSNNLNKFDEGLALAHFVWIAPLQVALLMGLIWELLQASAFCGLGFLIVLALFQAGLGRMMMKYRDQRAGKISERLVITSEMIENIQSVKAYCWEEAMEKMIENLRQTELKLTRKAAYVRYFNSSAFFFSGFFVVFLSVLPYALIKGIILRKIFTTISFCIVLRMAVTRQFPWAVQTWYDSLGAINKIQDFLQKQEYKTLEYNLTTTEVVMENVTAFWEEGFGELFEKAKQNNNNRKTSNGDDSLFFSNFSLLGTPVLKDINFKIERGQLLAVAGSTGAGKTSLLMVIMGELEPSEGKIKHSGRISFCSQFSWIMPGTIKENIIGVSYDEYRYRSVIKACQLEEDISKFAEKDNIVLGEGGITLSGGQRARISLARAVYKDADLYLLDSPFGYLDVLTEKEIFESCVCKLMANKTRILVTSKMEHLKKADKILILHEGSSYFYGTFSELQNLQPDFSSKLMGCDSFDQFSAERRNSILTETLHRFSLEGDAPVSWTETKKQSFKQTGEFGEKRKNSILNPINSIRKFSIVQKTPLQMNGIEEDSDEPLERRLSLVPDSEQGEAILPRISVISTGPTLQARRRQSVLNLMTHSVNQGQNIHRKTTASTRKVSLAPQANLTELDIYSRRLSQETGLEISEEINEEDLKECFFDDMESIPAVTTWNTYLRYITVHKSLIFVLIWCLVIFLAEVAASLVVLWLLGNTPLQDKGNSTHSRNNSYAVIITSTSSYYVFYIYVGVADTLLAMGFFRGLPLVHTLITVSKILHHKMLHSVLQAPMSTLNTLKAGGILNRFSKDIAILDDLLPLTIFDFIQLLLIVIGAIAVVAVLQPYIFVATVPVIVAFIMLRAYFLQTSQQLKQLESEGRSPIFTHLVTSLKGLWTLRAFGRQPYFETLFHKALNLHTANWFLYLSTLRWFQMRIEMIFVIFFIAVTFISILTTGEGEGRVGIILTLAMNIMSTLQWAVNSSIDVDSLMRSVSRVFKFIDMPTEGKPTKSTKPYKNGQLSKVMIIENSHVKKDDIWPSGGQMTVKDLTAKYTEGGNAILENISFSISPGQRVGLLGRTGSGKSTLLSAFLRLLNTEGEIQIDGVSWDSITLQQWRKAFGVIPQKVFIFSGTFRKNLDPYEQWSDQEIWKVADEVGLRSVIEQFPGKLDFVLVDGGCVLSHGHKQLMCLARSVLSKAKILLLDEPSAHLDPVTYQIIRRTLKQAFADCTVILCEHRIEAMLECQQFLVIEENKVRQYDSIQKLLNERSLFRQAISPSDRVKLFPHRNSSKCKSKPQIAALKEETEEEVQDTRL

Row | Compound | Emax [1] | EC50 [2] | EC50
1 | Cc1cccc(C)c1-c1nc(NS(=O)(=O)c2cccc(N3CCC(O)(C(=O)O)CC3)n2)ccc1Cl [Example 261, 1-(6-{[5-chloro-6-(2,6-dimethylphenyl)pyridin-2-yl]sulfamoyl}pyridin-2-yl)-4-hydroxypiperidine-4-carboxylic Acid] | 22.8% | 4140 nM | –
2 | COC(=O)C1(NC(=O)OC(C)(C)C)CCN(c2cccc(S(=O)(=O)Nc3ccc(Cl)c(-c4c(C)cccc4C)n3)n2)CC1 [Example 267, methyl 4-{[(tert-butoxy)carbonyl]amino}-1-(6-{[5-chloro-6-(2,6-dimethylphenyl)pyridin-2-yl]sulfamoyl}pyridin-2-yl)piperidine-4-carboxylate] | 887% | 1260 nM | –
3 | Cc1cccc(C)c1-c1nc(NS(=O)(=O)c2cccc(N3CCC(NC(=O)OC(C)(C)C)(C(=O)O)CC3)n2)ccc1Cl [Example 268, 4-{[(tert-butoxy)carbonyl]amino}-1-(6-{[5-chloro-6-(2,6-dimethylphenyl)pyridin-2-yl]sulfamoyl}pyridin-2-yl)piperidine-4-carboxylic Acid] | 103% | 3730 nM | –
4 | Cc1ccccc1-c1nc(NS(=O)(=O)c2cccc(N3CCC34CN(C(=O)OC(C)(C)C)C4)n2)ccc1C(F)(F)F [Example 301, tert-butyl 1-(6-(N-(6-(o-tolyl)-5-(trifluoromethyl)pyridin-2-yl)sulfamoyl)pyridin-2-yl)-1,6-diazaspiro[3.3]heptane-6-carboxylate] | 546% | 670 nM | –
5 | Cc1ccccc1-c1nc(NS(=O)(=O)c2cccc(N3CCC34CNC4)n2)ccc1C(F)(F)F [Example 313, 6-(1,6-diazaspiro[3.3]heptan-1-yl)-N-(6-(o-tolyl)-5-(trifluoromethyl)pyridin-2-yl)pyridine-2-sulfonamide] | 128% | 4570 nM | –
6 | Cc1ccccc1-c1nc(NS(=O)(=O)c2cccc(N3CC(C(=O)O)C3)n2)ccc1C(F)(F)F [Example 330, 1-(6-(N-(6-(o-tolyl)-5-(trifluoromethyl)pyridin-2-yl)sulfamoyl)pyridin-2-yl)azetidine-3-carboxylic Acid] | 9.1% | 2300 nM | –
7 | Cc1ccccc1-c1nc(NS(=O)(=O)c2cccc(N3CCN(C(=O)OC(C)(C)C)[C@H](C(=O)O)C3)n2)ccc1C(F)(F)F [Example 334, (2S)-1-[(tert-butoxy)carbonyl]-4-(6-{[6-(2-methylphenyl)-5-(trifluoromethyl)pyridin-2-yl]sulfamoyl}pyridin-2-yl)piperazine-2-carboxylic Acid] | 164% | 2470 nM | –
8 | Cc1ccccc1-c1nc(NS(=O)(=O)c2cccc(N3CCN[C@H](C(=O)O)C3)n2)ccc1C(F)(F)F [Example 335, (2S)-4-(6-{[6-(2-methylphenyl)-5-(trifluoromethyl)pyridin-2-yl]sulfamoyl}pyridin-2-yl)piperazine-2-carboxylic Acid] | 71.3% | 3140 nM | –
9 | Cc1ccccc1-c1nc(NS(=O)(=O)c2cccc(N3CCN(C(=O)OC(C)(C)C)[C@@H](C(=O)O)C3)n2)ccc1C(F)(F)F [Example 338, (2R)-1-[(tert-butoxy)carbonyl]-4-(6-{[6-(2-methylphenyl)-5-(trifluoromethyl)pyridin-2-yl]sulfamoyl}pyridin-2-yl)piperazine-2-carboxylic Acid] | 542% | 2810 nM | –
10 | Cc1ccccc1-c1nc(NS(=O)(=O)c2cccc(N3C4CCC3CC(C(=O)O)C4)n2)ccc1C(F)(F)F (stereo not drawn) [Example 346, 8-(6-{[6-(2-methylphenyl)-5-(trifluoromethyl)pyridin-2-yl]sulfamoyl}pyridin-2-yl)-8-azabicyclo[3.2.1]octane-3-carboxylic Acid] | 297% | – | 1750 nM
11 | Cc1ccccc1-c1nc(NS(=O)(=O)c2cccc(N3CCN(C(=O)OC(C)(C)C)C[C@@H]3C(=O)O)n2)ccc1C(F)(F)F [Example 347, (2R)-4-[(tert-butoxy)carbonyl]-1-(6-{[6-(2-methylphenyl)-5-(trifluoromethyl)pyridin-2-yl]sulfamoyl}pyridin-2-yl)piperazine-2-carboxylic Acid] | 245% | 1890 nM | –
12 | Cc1ccccc1-c1nc(NS(=O)(=O)c2cccc(N3CCN(C(=O)OC(C)(C)C)C[C@H]3C(=O)O)n2)ccc1C(F)(F)F [Example 350, (2S)-4-[(tert-butoxy)carbonyl]-1-(6-{[6-(2-methylphenyl)-5-(trifluoromethyl)pyridin-2-yl]sulfamoyl}pyridin-2-yl)piperazine-2-carboxylic Acid] | 232% | 1900 nM | –

The remaining compounds from weak to strong by EC50 [2], led by results:

Row | Emax [1] | EC50 [2] | Compound | EC50
13 | 137% | 4980 nM | Cc1ccc(F)cc1-c1nc(NS(=O)(=O)c2cccc(N3CCC34CNC4)n2)ccc1Cl [Example 310, N-(5-chloro-6-(5-fluoro-2-methylphenyl)pyridin-2-yl)-6-(1,6-diazaspiro[3.3]heptan-1-yl)pyridine-2-sulfonamide] | –
14 | 185% | 4670 nM | Cc1ccc(C#N)cc1-c1nc(NS(=O)(=O)c2ccnc(N3CC(C)(O)C3)c2)ccc1C(F)(F)F [Example 317, N-(6-(5-cyano-2-methylphenyl)-5-(trifluoromethyl)pyridin-2-yl)-2-(3-hydroxy-3-methylazetidin-1-yl)pyridine-4-sulfonamide] | –
15 | 92.5% | 4260 nM | Cc1ccc(F)cc1-c1nc(NS(=O)(=O)c2ccnc(N3CCNCC3)c2)ccc1Cl [Example 327, N-(5-chloro-6-(5-fluoro-2-methylphenyl)pyridin-2-yl)-2-(piperazin-1-yl)pyridine-4-sulfonamide] | –
16 | 105% | 4000 nM | Cc1cccc(C)c1-c1nc(NS(=O)(=O)c2cccc(N3CCC(N)(C(=O)O)CC3)n2)ccc1Cl [Example 269, 4-amino-1-(6-{[5-chloro-6-(2,6-dimethylphenyl)pyridin-2-yl]sulfamoyl}pyridin-2-yl)piperidine-4-carboxylic Acid Hydrochloride] | –
17 | 59.8% | 3800 nM | COC(=O)C1(O)CCN(c2cccc(S(=O)(=O)Nc3ccc(Cl)c(-c4c(C)cccc4C)n3)n2)CC1 [Example 260, methyl 1-(6-{[5-chloro-6-(2,6-dimethylphenyl)pyridin-2-yl]sulfamoyl}pyridin-2-yl)-4-hydroxypiperidine-4-carboxylate] | –
18 | 89.2% | 3030 nM | Cc1ccccc1-c1nc(NS(=O)(=O)c2cccc(N3CCN[C@@H](C(=O)O)C3)n2)ccc1C(F)(F)F [Example 341, (2R)-4-(6-{[6-(2-methylphenyl)-5-(trifluoromethyl)pyridin-2-yl]sulfamoyl}pyridin-2-yl)piperazine-2-carboxylic Acid] | –
19 | 145% | 2830 nM | Cc1ccccc1-c1nc(NS(=O)(=O)c2cccc(N3CC[C@H](C(=O)O)C3)n2)ccc1C(F)(F)F [Example 348, (3S)-1-(6-{[6-(2-methylphenyl)-5-(trifluoromethyl)pyridin-2-yl]sulfamoyl}pyridin-2-yl)pyrrolidine-3-carboxylic Acid] | –
20 | 278% | 2450 nM | Cc1ccccc1-c1nc(NS(=O)(=O)c2cccc(N3C[C@H]4C[C@H]4[C@H]3C(=O)O)n2)ccc1C(F)(F)F [Example 340, (1R,2S,5S)-3-(6-{[6-(2-methylphenyl)-5-(trifluoromethyl)pyridin-2-yl]sulfamoyl}pyridin-2-yl)-3-azabicyclo[3.1.0]hexane-2-carboxylic Acid] | –
21 | 122% | 2310 nM | Cc1ccccc1-c1nc(NS(=O)(=O)c2cccc(N3CCO[C@@H](C(=O)O)C3)n2)ccc1C(F)(F)F [Example 339, (2R)-4-(6-{[6-(2-methylphenyl)-5-(trifluoromethyl)pyridin-2-yl]sulfamoyl}pyridin-2-yl)morpholine-2-carboxylic Acid] | –
22 | – | 1790 nM | CCOc1ccccc1-c1nc(NS(=O)(=O)c2cccc(N3CCC[C@@](C)(C(=O)O)C3)n2)ccc1C(F)(F)F [Example 328, (R)-1-(6-(N-(6-(2-ethoxyphenyl)-5-(trifluoromethyl)pyridin-2-yl)sulfamoyl)pyridin-2-yl)-3-methylpiperidine-3-carboxylic Acid] | –
23 | 266% | 1760 nM | Cc1ccccc1-c1nc(NS(=O)(=O)c2cccc(N3CCC(C)(C(=O)O)C3)n2)ccc1C(F)(F)F (stereo not drawn) [Example 336, 3-methyl-1-(6-{[6-(2-methylphenyl)-5-(trifluoromethyl)pyridin-2-yl]sulfamoyl}pyridin-2-yl)pyrrolidine-3-carboxylic Acid] | –
24 | 252% | 1640 nM | Cc1ccccc1-c1nc(NS(=O)(=O)c2cccc(N3CC[C@@H](C(=O)O)C3)n2)ccc1C(F)(F)F [Example 349, (3R)-1-(6-{[6-(2-methylphenyl)-5-(trifluoromethyl)pyridin-2-yl]sulfamoyl}pyridin-2-yl)pyrrolidine-3-carboxylic Acid] | –
25 | 677% | 1490 nM | Cc1ccc(F)cc1-c1nc(NS(=O)(=O)c2cccc(N3CCN(C(=O)OC(C)(C)C)CC3)n2)ccc1Cl [Example 298, tert-butyl 4-(6-(N-(5-chloro-6-(5-fluoro-2-methylphenyl)pyridin-2-yl)sulfamoyl)pyridin-2-yl)piperazine-1-carboxylate] | –
26 | – | 1280 nM | CCOC(=O)C1(C)CCN(c2cccc(S(=O)(=O)Nc3ccc(C(F)(F)F)c(-c4c(C)cccc4C)n3)n2)CC1 [Example 266, ethyl 1-(6-{[6-(2,6-dimethylphenyl)-5-(trifluoromethyl)pyridin-2-yl]sulfamoyl}pyridin-2-yl)-4-methylpiperidine-4-carboxylate] | –
27 | – | 930 nM | CCCOc1ccccc1-c1nc(NS(=O)(=O)c2cccc(N3CCC[C@@](C)(C(=O)O)C3)n2)ccc1C(F)(F)F [Example 329, (R)-3-methyl-1-(6-(N-(6-(2-propoxyphenyl)-5-(trifluoromethyl)pyridin-2-yl)sulfamoyl)pyridin-2-yl)piperidine-3-carboxylic Acid] | –

— patent publication US11066369B2, “N-(pyridin-2-yl)pyridine-sulfonamide derivatives and their use in the treatment of disease” (Novartis AG, priority 2016, dated 2021)
